From patent US11684621B2, “Combination containing sGC stimulators and mineralocorticoid receptor antagonists” (Bayer Pharma Aktiengesellschaft, priority 2016, dated 2023)

Tested on: L-NAME-treated renin transgenic rats (TGR(mRen2)27)
Test: L-NAME-treated transgenic renin rat (TGR(mRen2)27): mortality and proteinuria
Format: in vivo
Details: finerenone 10 mg/kg od, compound of the formula (X) 0.3 mg/kg od, alone or combined; for All-cause mortality during the study period / Survival rate over the study period: L-NAME-treated TGR(mRen2)27 renin rats, daily gavage; for All-cause mortality during the study period: 15 animals per group, placebo mortality 40%; for Survival rate over the study period: study terminated after 40% of placebo animals had died; for Reduction of proteinuria, measured as protein/creatinine quotient in urine / Protein/creatine quotient - % of group A (proteinuria in % reduction from placebo): L-NAME-treated renin transgenic rats; for Reduction of proteinuria, measured as protein/creatinine quotient in urine: versus placebo; for Protein/creatine quotient - % of group A (proteinuria in % reduction from placebo): urine, end of the study, mean ± SEM, relative to placebo group A
Excerpt: 3.) L-NAME-treated transgenic renin rat (TGR(mRen2)27)
The transgenic renin rat ‘TGR(mRen2)27’ is a hypertensive rat line developed by Mullins and Ganten which overexpresses the Ren-2 gene of the mouse. Additional administration of the nitrogen monoxide synthase inhibitor L-NAME induces endothelial dysfunction which increases morbidity and mortality in this model. Unless subjected to life-long antihypertensive therapy, homozygous animals die of secondary complications such as heart and kidney failure or stroke.
Male TGR(mRen2)27 renin rats aged 10 to 20 weeks are randomized to different pharmacological treatment groups and a placebo group. In addition, the nitrogen monoxide synthase inhibitor L-NAME is administered via the drinking water in a concentration of 30 to 100 mg/l. During the entire experiment, drinking water and feed are available ad libitum to the animals. The substances are administered via the feed or daily by gavage for 4-10 weeks. Animals treated in the same way but receiving either only the solvent or the feed without test substance serve as placebo group. During the experiment, the systolic blood pressure is determined at regular intervals using a tail cuff, and proteinuria and urine electrolyte composition are determined by collecting the urine in metabolic cages. At the end of the experiment, haemodynamic parameters (blood pressure, heart rate, inotropism [dp/dt], relaxation time [tau], maximum left ventricular pressure, left ventricular end-diastolic pressure [LVEDP]) are measured, and the weights of heart, kidney and lung are determined, protein elimination and biomarkers (e.g. ANP, RIA Kit RK 005-24, Phoenix Pharmaceuticals, Inc., USA, cGMP, RIA Kit RE29075, IBL International GmbH, Hamburg, Germany, renin, angiotensin I, RIA Kit CA-1533, DiaSorin S.p.A., Italy, and aldosterone, P2714, DiaSorin S.p.A., Italy) and gene expression of biomarkers by RT/TaqMan PCR following RNA isolation from cardiac and renal tissue are determined.
Cardiac and cardiovascular disorders as well as renal and cardiorenal disorders are characterized by high patient morbidity and also high mortality. This morbidity and mortality, together with various risk factors such as hypertension, can be reproduced very accurately in the above-described animal model of the L-NAME-treated renin transgenic rat. Therefore, this animal model, for example, was used to investigate MR antagonists such as, for example, finerenone according to the compound of the formula (IV) and sGC stimulators such as, for example, the compound of the formula (X), and combinations of both: […]
For example, the MR antagonist finerenone, corresponding to the compound of the formula (IV), and the sGC stimulator, corresponding to the compound of the formula (X), were tested on their own and in combinations in TGR(mRen2)27 renin rats aged 10 to 20 weeks. In addition, the nitrogen monoxide synthase inhibitor L-NAME was administered via the drinking water in a concentration of 30 to 100 mg/l. During the entire experiment, drinking water and feed were available ad libitum to the animals. The substances were administered daily by gavage for 4-10 weeks. Animals treated in the same way but receiving only the solvent for the test substance served as placebo group. In the test series, in addition to placebo (group A), the MR antagonist finerenone corresponding to the compound of the formula (IV) (10 mg/kg od) (group B) and the sGC stimulator corresponding to the compound of the formula (X) (0.3 mg/kg od) (group C) on their own and a combination of finerenone corresponding to the compound of the formula (IV) (10 mg/kg od)+compound of the formula (X) (0.3 mg/kg od) (group D) were administered. In this study, 15 animals were used per group (A, B, C, D) (Table 1): […]

COC(=O)Nc1c(N)nc(-c2nn(Cc3ccccc3F)c3ncc(F)cc23)nc1N [compound of the formula (X), methyl {4,6-diamino-2-[5-fluoro-1-(2-fluorobenzyl)-1H-pyrazolo[3,4-b]pyridin-3-yl]pyrimidin-5-yl}carbamate]
All-cause mortality during the study period: 13%
Survival rate over the study period: 87%
Reduction of proteinuria, measured as protein/creatinine quotient in urine: 51%
Protein/creatine quotient - % of group A (proteinuria in % reduction from placebo): −51 + 20%

CCOc1ncc(C)c2c1[C@H](c1ccc(C#N)cc1OC)C(C(N)=O)=C(C)N2 [finerenone, (S)-4-(4-cyano-2-methoxyphenyl)-5-ethoxy-2,8-dimethyl-1,4-dihydro-1,6-naphthyridine-3-carboxamide]
All-cause mortality during the study period: 20%
Survival rate over the study period: 80%
Reduction of proteinuria, measured as protein/creatinine quotient in urine: 58%
Protein/creatine quotient - % of group A (proteinuria in % reduction from placebo): −58 + 16%
